Laboratory results as given in patent publication US7989618B2, “Linezolid crystalline hydrate form and linezolid salts” (DiPharma Francis s.r.l., priority 2007, dated 2011).

Experiments:
[1] = as stated in US 2006/0142283 / WO 2005/035530; cited from earlier work
[2] = electrostatic character of the crystals; type: physicochemical; settings: contrary to the known crystalline Form II
[3] = hygroscopicity of the isolated solid; type: physicochemical; settings: amorphous solid

CC(=O)NC[C@H]1CN(c2ccc(N3CCOCC3)c(F)c2)C(=O)O1 [Form III, Linezolid Form III]
electrostatic character and compactness compared with Form II (in words) [1]: more compact and less electrostatic than the Form II

CC(=O)NC[C@H]1CN(c2ccc(N3CCOCC3)c(F)c2)C(=O)O1 [linezolid hemihydrate, Linezolid Hemihydrate]
electrostatic character (in words) [2]: not electrostatic

Linezolid Sulfate
hygroscopicity (in words) [3]: hygroscopic
